The results in this text go back to ChEMBL document CHEMBL4011661, “The Fragment Network: A Chemistry Recommendation Engine Built Using a Graph Database” (J Med Chem, 2017).

Assay [1] has as its target RAC-beta serine/threonine-protein kinase (Homo sapiens, UniProt P31751). In words: Inhibition of PKBbeta (unknown origin) in presence of [33P-gamma]ATP by scintillation counting.
A short description of assay [2]: Inhibition of 5-FAM peptide binding to Hepatitis C virus full length NS3/4A helicase after 30 mins by FRET assay. Further details: species or system Hepacivirus hominis.

Chain of RAC-beta serine/threonine-protein kinase (P31751 whole entry): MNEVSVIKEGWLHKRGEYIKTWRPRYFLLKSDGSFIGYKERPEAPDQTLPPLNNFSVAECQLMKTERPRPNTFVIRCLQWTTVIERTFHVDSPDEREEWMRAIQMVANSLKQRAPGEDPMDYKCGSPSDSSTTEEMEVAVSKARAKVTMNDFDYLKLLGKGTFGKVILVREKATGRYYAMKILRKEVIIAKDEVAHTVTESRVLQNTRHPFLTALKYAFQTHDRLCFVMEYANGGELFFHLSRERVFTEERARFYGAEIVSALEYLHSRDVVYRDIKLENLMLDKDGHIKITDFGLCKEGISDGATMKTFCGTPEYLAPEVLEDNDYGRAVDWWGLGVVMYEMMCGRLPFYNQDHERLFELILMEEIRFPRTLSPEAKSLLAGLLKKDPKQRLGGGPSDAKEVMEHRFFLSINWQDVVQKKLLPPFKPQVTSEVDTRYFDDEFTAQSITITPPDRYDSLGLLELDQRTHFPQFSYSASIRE

What is called IC50 is the concentration that inhibits the measured activity by half. Take `Cc1n[nH]c(N)c1-c1ccccc1`: the IC50 in assay [1] is 660 µM. Regarding `NCc1ccc(Oc2ccccc2)cc1`, in assay [2], the IC50 amounted to 500 µM. `NCc1ccc(F)c(Oc2ccccc2)c1F` came in with an IC50 in assay [2] of 20 µM. On the same count and under the same terms, in the case of `NCc1ccc(Oc2ccccc2)c(Cl)c1` it was 41 µM; in that of `NCc1cccc(Oc2ccccc2)c1`, 130 µM; in that of `NCc1cc(F)c(Oc2ccccc2)c(F)c1`, 34 µM. The molecule `NCc1ccc(C(=O)c2ccccc2)cc1` came in with a half-inhibitory concentration (IC50) in assay [2] of 180 µM.

With `Cc1n[nH]c(C)c1-c1ccccc1`, in assay [1], the IC50 worked out at 72 µM.
